How the values were obtained:
in vivo = conditions: mouse, ip
Protocol: (§7) The animals (5 animals per dose) are given food and water ad lib. Different dosages of the substances are administered intraperitoneally. The duration of observation is 14 days.

pancreatic secretion = experiment: Influence on the pancreatic secretion of the narcotized rat after intraduodenal application; assay type: in vivo, rat (male Sprague-Dawley); conditions: Rattus norvegicus, 0.5 h, read-out: Pancreatic Secretion ED50 (dose which brings about an increase in the pancreatic secretion by a maximum of 50%)
Excerpt: (§1) Influence on the Pancreatic and Bile Secretion of the Narcotized Rat Carrying out the Test
(§2) Male Sprague-Dawley rats (250 to 300 g body weight) are narcotized with 1.2 g/kg urethane i.m. Then the abdominal cavity is opened medially, the Ductus choledochus ligatured shortly above its entry into the duodenum and also near the liver joint, and both sections are catheterized towards the liver.
(§3) As in the case of the rat all pancreatic ducts lead into the center section of the Ductus choledochus; it is thus possible in this way to derive separately the pancreatic secreta from the distal (ligatured) section and the bile from the proximal section of the Ductus choledochus.
(§4) The separated quantities of pancreatic juice and bile juice are measured at intervals of 30 minutes during the period from before 2 hours to 3 hours after the intraduodenal […] administration of the compounds to be tested (volume of liquid administered 5 ml/kg).
(§5) The body temperature of the animals is maintained at from 36° to 38° C. by means of electric blankets and radiation; the monitoring of the temperature is carried out rectally.
(§6) The liquid volumes of the 30-minute fractions after the administration of the product are related in each case to the quantity of bile or pancreatic juice secreted prior to the application of the substance (=100%, mean of the two last measurements). The maximum percentage increase of the pancreatic or bile secretion is plotted against the dose and, from this, the ED50 is determined by interpolation.

[1] = as above; assay type: in vivo, rat (male Sprague-Dawley); conditions: in vivo; Table I; LD50 mouse i.p. / ED50 pancreatic secretion rat i.d.; read-out: TQ (LD50/ED50), pancreatic secretion
Excerpt: as §1, §2, §3, §4, §5, §6

bile secretion = experiment: Influence on the bile secretion (choleresis) of the narcotized rat after intraduodenal application; assay type: in vivo, rat (male Sprague-Dawley); conditions: Rattus norvegicus, 0.5 h, read-out: Bile Secretion ED50 (dose which brings about an increase in the bile secretion by a maximum of 50%)
Excerpt: as §1, §2, §3, §4, §5, §6

[2] = as above; assay type: in vivo, rat (male Sprague-Dawley); conditions: in vivo; Table II; LD50 mouse i.p. / ED50 bile secretion rat i.d.; read-out: TQ (LD50/ED50), bile secretion
Excerpt: as §1, §2, §3, §4, §5, §6

female NMRI mice = experiment: Determination of the toxicity, lethal effect on the mouse after intraperitoneal application; conditions: Table II, i.p., 14 days observation;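 further: mice received several intraperitoneal dose levels, five animals per level, and were followed for 14 days to estimate the lethal dose for half the animals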
Protocol: as §7

Cc1cccc(C)c1N(CCCC(=O)N(C)CC(=O)O)C(=O)c1ccc(Cl)cc1 [Serial No. 2, N-[N-(p-chlorobenzoyl)-4-(2,6-dimethylanilino)butyryl]sarcosine]
LD50 at 336 h (in vivo): 700 mg/kg | ED50 (pancreatic secretion): 10 mg/kg | selectivity ratio [1]: 70

COc1ccc(N(CC(=O)N(C)CC(=O)O)C(=O)c2ccc(Cl)cc2)cc1 [Serial No. 3, N-[N-(p-chlorobenzoyl)-2-(p-anisidino)acetyl]sarcosine]
LD50 at 336 h (in vivo): > 1000 mg/kg | ED50 (pancreatic secretion): 15 mg/kg | selectivity ratio [1]: > 67

COc1ccc(N(CC(=O)NCC(=O)O)C(=O)c2ccc(Cl)cc2)cc1 [Serial No. 4, N-[N-(p-chlorobenzoyl)-2-(p-anisidino)acetyl]glycine]
LD50 at 336 h (in vivo): > 1000 mg/kg | ED50 (pancreatic secretion): 15 mg/kg | selectivity ratio [1]: > 67

COc1ccc(N(CC(=O)NCCC(=O)O)C(=O)c2ccc(Cl)cc2)cc1 [Serial No. 5, N-[N-(p-chlorobenzoyl)-2-(p-anisidino)acetyl]-3-aminopropionic acid]
LD50 at 336 h (in vivo): 1300 mg/kg | ED50 (pancreatic secretion): 25 mg/kg | selectivity ratio [1]: 52

Cc1cccc(C)c1N(CC(=O)NCC(=O)O)C(=O)c1ccc(Cl)cc1 [Serial No. 6, N-[N-(p-chlorobenzoyl)-2-(2,6-dimethylanilino)acetyl]glycine]
LD50 at 336 h (in vivo): 400 mg/kg | ED50 (pancreatic secretion): ~5 mg/kg | selectivity ratio [1]: ~80

Cc1cccc(C)c1N(CC(=O)NCCC(=O)O)C(=O)c1ccc(Cl)cc1 [Serial No. 7, N-[N-(p-chlorobenzoyl)-2-(2,6-dimethylanilino)acetyl]-3-aminopropionic acid]
LD50 at 336 h (in vivo): 450 mg/kg | ED50 (pancreatic secretion): ≤ 1 mg/kg | selectivity ratio [1]: ≥ 450 | ED50 (bile secretion): 10 mg/kg | selectivity ratio [2]: 45

COc1ccc(N(CC(=O)N(CCCC(=O)O)c2ccc(OC)cc2)C(C)=O)cc1 [Serial No. 8, N-[N-acetyl-2-(p-anisidino)acetyl]-4-(p-anisidino)butyric acid]
LD50 at 336 h (in vivo): 1200 mg/kg | ED50 (pancreatic secretion): 1 mg/kg | selectivity ratio [1]: 1200

COc1ccc(N(CCCC(=O)O)C(=O)CN(C(=O)c2ccc(Cl)cc2)c2ccc(OC)cc2)cc1 [Serial No. 9, N-[N-(p-chlorobenzoyl)-2-(p-anisidino)acetyl]-4-(p-anisidino)butyric acid]
LD50 at 336 h (in vivo): 420 mg/kg | ED50 (pancreatic secretion): 3 mg/kg | selectivity ratio [1]: 140

COc1ccc(N(CCCC(=O)O)C(=O)CCN(C(=O)c2ccc(Cl)cc2)c2ccc(OC)cc2)cc1 [Serial No. 10, N-[N-(p-chlorobenzoyl)-3-(p-anisidino)propionyl]-4-(p-anisidino)butyric acid]
LD50 at 336 h (in vivo): 220 mg/kg | ED50 (pancreatic secretion): ~1 mg/kg | selectivity ratio [1]: ~220

Cc1cccc(C)c1N(CCCC(=O)O)C(=O)CCCN(C(=O)c1ccc(Cl)cc1)c1c(C)cccc1C [Serial No. 11, N-[N-(p-chlorobenzoyl)-4-(2,6-dimethylanilino)butyryl]-4-(2,6-dimethylanilino)butyric acid]
LD50 at 336 h (in vivo): 130 mg/kg | ED50 (pancreatic secretion): 1 mg/kg | selectivity ratio [1]: 130 | ED50 (bile secretion): 3 mg/kg | selectivity ratio [2]: 43

COc1ccc(N(CCCC(=O)N(CCCC(=O)O)c2c(C)cccc2C)C(=O)c2ccc(Cl)cc2)cc1 [Serial No. 12, N-[N-(p-chlorobenzoyl)-4-(p-anisidino)butyryl]-4-(2,6-dimethylanilino)butyric acid]
LD50 at 336 h (in vivo): 800 mg/kg | ED50 (pancreatic secretion): 2 mg/kg | selectivity ratio [1]: 400 | ED50 (bile secretion): 14 mg/kg | selectivity ratio [2]: 57

COc1ccc(N(CCCC(=O)O)C(=O)CCCN(C(=O)c2ccc(Cl)cc2)c2c(C)cccc2C)cc1 [Serial No. 13, N-[N-(p-chlorobenzoyl)-4-(2,6-dimethylanilino)butyryl]-4-(p-anisidino)butyric acid]
LD50 at 336 h (in vivo): 150 mg/kg | ED50 (pancreatic secretion): 0.8 mg/kg | selectivity ratio [1]: 188

Cc1cccc(C)c1N(CCCC(=O)NCCCC(=O)O)C(=O)c1ccc(Cl)cc1 [Serial No. 14, N-[N-(p-chlorobenzoyl)-4-(2,6-dimethylanilino)butyryl]-4-aminobutyric acid]
LD50 at 336 h (in vivo): 400 mg/kg | ED50 (pancreatic secretion): 0.4 mg/kg | selectivity ratio [1]: 1000

COc1cc(C(=O)N(CCCC(=O)NCCCC(=O)O)c2c(C)cccc2C)cc(OC)c1OC [Serial No. 15, N-[N-(3,4,5-trimethoxybenzoyl)-4-(2,6-dimethylanilino)butyryl]-4-aminobutyric acid]
LD50 at 336 h (in vivo): 800 mg/kg | ED50 (pancreatic secretion): ~1 mg/kg | selectivity ratio [1]: ~800

COc1ccc(N(CCCC(=O)O)C(=O)C(C)N(C(C)=O)c2ccc(OC)cc2)cc1 (centres unmarked) [Serial No. 16, N-[N-acetyl-2-(p-anisidino)propionyl]-4-(p-anisidino)butyric acid]
LD50 at 336 h (in vivo): 600 mg/kg | ED50 (bile secretion): 10 mg/kg | selectivity ratio [2]: 60

COc1ccc(N(CCCC(=O)O)C(=O)C(C)N(C(=O)c2ccco2)c2ccc(OC)cc2)cc1 (centres unmarked) [Serial No. 17, N-[N-(2-furoyl)-2-(p-anisidino)propionyl]-4-(p-anisidino)butyric acid]
LD50 at 336 h (in vivo): 750 mg/kg | ED50 (pancreatic secretion): 5 mg/kg | selectivity ratio [1]: 150 | ED50 (bile secretion): 11 mg/kg | selectivity ratio [2]: 68

COc1ccc(N(CCCC(=O)O)C(=O)C(C)N(C(=O)c2ccc(Cl)cc2)c2ccc(OC)cc2)cc1 (centres unmarked) [Serial No. 18, N-[N-(p-chlorobenzoyl)-2-(p-anisidino)propionyl]-4-(p-anisidino)butyric acid]
LD50 at 336 h (in vivo): ≤ 250 mg/kg | ED50 (pancreatic secretion): 5 mg/kg | selectivity ratio [1]: ≤ 50 | Toxicity LD50 (female NMRI mice): ≤ 250 mg/kg | ED50 (bile secretion): 7 mg/kg | selectivity ratio [2]: ≤ 36

COc1ccc(N(CCCC(=O)O)C(=O)CCN(C(C)=O)c2c(C)cccc2C)cc1 [Serial No. 20, N-[N-acetyl-3-(2,6-dimethylanilino)propionyl]-4-(p-anisidino)butyric acid]
LD50 at 336 h (in vivo): 600 mg/kg | ED50 (pancreatic secretion): 7 mg/kg | selectivity ratio [1]: 86 | ED50 (bile secretion): 7 mg/kg | selectivity ratio [2]: 86

CCc1cccc(CC)c1N(CCCC(=O)O)C(=O)CCN(C(C)=O)c1c(C)cccc1C [Serial No. 21, N-[N-acetyl-3-(2,6-dimethylanilino)propionyl]-4-(2,6-diethylanilino)butyric acid]
LD50 at 336 h (in vivo): 280 mg/kg | ED50 (bile secretion): ~1 mg/kg | selectivity ratio [2]: ~280

CCc1cccc(C)c1N(CCCC(=O)O)C(=O)CCN(C(C)=O)c1c(C)cccc1C [Serial No. 22, N-[N-acetyl-3-(2,6-dimethylanilino)propionyl]-4-(2-ethyl-6-methylanilino)butyric acid]
LD50 at 336 h (in vivo): 430 mg/kg | ED50 (pancreatic secretion): 3 mg/kg | selectivity ratio [1]: 143 | ED50 (bile secretion): 1.3 mg/kg | selectivity ratio [2]: 331

COc1ccc(N(CCCC(=O)O)C(=O)[C@H](CCSC)NC(=O)c2ccc(Cl)cc2)cc1 [Serial No. 23, N-[N-(p-chlorobenzoyl)methionyl]-4-(p-anisidino)butyric acid]
LD50 at 336 h (in vivo): 700 mg/kg | ED50 (bile secretion): 2.5 mg/kg | selectivity ratio [2]: 280

COc1ccc(C(=O)N[C@@H](Cc2ccccc2)C(=O)N(CCCC(=O)O)c2ccc(OC)cc2)cc1 [Serial No. 24, N-[N-(p-methoxybenzoyl)phenylalanyl]-4-(p-anisidino)butyric acid]
LD50 at 336 h (in vivo): 300 mg/kg | ED50 (pancreatic secretion): 6 mg/kg | selectivity ratio [1]: 50 | ED50 (bile secretion): 6 mg/kg | selectivity ratio [2]: 50

COc1ccc(N(CCCC(=O)O)C(=O)CCN(C(=O)c2ccc(Cl)cc2)c2c(C)cccc2C)cc1 [Serial No. 25, N-[N-(p-chlorobenzoyl)-3-(2,6-dimethylanilino)propionyl]-4-(p-anisidino)butyric acid]
LD50 at 336 h (in vivo): 60 mg/kg | ED50 (bile secretion): ~1 mg/kg | selectivity ratio [2]: ~60
